Values quoted from earlier work as cited in patent US20090069345A1, “Pharmaceutically Stable Compound Consisting of Timolol, Dorzolamide and Brimonidine” (priority 2007, published 2009).

What was measured:
eye of a rabbit = conditions: concentrations above those normally used in formulations
[1] = intravenous injection, first 3 hours

| Compound | toxicity to the eye (eye of a rabbit) | dose excreted in urine [1] |
| --- | --- | --- |
| Benzalkonium chloride | damaging |  |
| OC[C@@H](O)[C@@H](O)[C@H](O)[C@H](O)CO [Mannitol] |  | about 80% |
